Source: patent US20180117029A1, “Targeting Metabolic Vulnerability in Triple-Negative Breast Cancer” (Beth Israel Deaconess Medical Center, Inc., priority 2016, published 2018)

Tests used:
[1] = system: SUM-159PT cells; assay: Fluorescence-based deoxyribonucleoside triphosphate assay in SUM-159PT cells; format: cell-based; conditions: for dCTP and dTTP (pyrimidine nucleoside triphosphate) levels, fluorescence-based assay: 0.5 μM doxorubicin or 12.5 μM cisplatin, 10 hours
Procedure: (§1) Deoxyribonucleoside triphosphate assay: Cells were maintained in full growth medium, and fresh medium was added at the time cells were treated with doxorubicin. In some cases, SUM-159PT cells were switched to Ham's F12 medium lacking glutamine. For metabolite extraction, medium was aspirated and ice-cold 60% (v/v) methanol was added. The insoluble material in lysates was pelleted by centrifugation at 10,000 g for 10 min. The resulting metabolite-containing supernatants were evaporated using a refridgerated SpeedVac. Samples were re-suspended in water and deoxyribonucleside triphosphate levels were measured as previously described (12).

[2] = system: SUM-159PT cells; assay: Propidium iodide viability assay in SUM-159PT cells; format: cell-based; conditions: for single-agent activity (percentage of dead cells) / sensitization of SUM-159PT cells to doxorubicin (percentage of dead cells): 80 μM PALA; for single-agent activity (percentage of dead cells): 0.3 μM brequinar or 20 μM A771726, without doxorubicin; for sensitization of SUM-159PT cells to doxorubicin (percentage of dead cells): 0.3 μM brequinar or 20 μM A771726 pre-treatment 12 hours
Procedure: Propidium iodide viability assay: Cell viability was assayed with a prodium iodide-based plate reader assay, as previously described (25). Briefly, cells in 96-well plates were treated with a final concentration of 30 μM propidium iodide for 60 minutes at 37° C. The initial fluorescence intensity was measured before digitonin was added to each well at a final concentration of 600 μM. After incubating for 30 minutes at 37° C., the final fluorescence intensity was measured. The fraction of dead cells was calculated by dividing the background-corrected initial fluorescence intensity by the final fluorescence intensity.

[3] = system: CAD, ERK and S6K1 phosphorylation in SUM-159PT cells; assay: Immunoblotting of CAD, ERK and S6K1 phosphorylation in SUM-159PT cells; format: cell-based
Procedure: (§2) Immunoblotting: Cells were washed with ice-cold PBS and lysed in radioimmunoprecipitation buffer (RIPA; 1% NP-40, 0.5% sodium deoxycholate, 0.1% SDS, 150 mmol/L NaCl, 50 mmol/L Tris-HCl, pH 7.5, protease inhibitor cocktail, 50 nmol/L calyculin A, 1 mmol/L sodium pyrophosphate, and 20 mmol/L sodium fluoride). Cell extracts were cleared by centrifugation and protein concentration was measured with the Bio-Rad DC protein assay. Lysates were then resolved on acrylamide gels by SDS-PAGE and transferred electrophoretically to nitrocellulose membrane (Bio-Rad). Blots were blocked in Tris-buffered saline (TBST) buffer (10 mmol/L Tris-HCl, pH 8, 150 mmol/L NaCl and 0.2% Tween 20) containing 5% (w/v) nonfat dry milk and then incubated with primary antibody overnight. Membranes were incubated with HRP-conjugated secondary antibody and developed using enhanced chemiluminescence substrate (EMD Millipore).

[4] = system: ovarian cancer cells (OVCAR3, OVCAR8); assay: Viability by propidium iodide uptake in ovarian cancer cells; format: cell-based, human; conditions: brequinar pre-treatment 16 h, then doxorubicin 48 hours
Procedure: Since ovarian cancers display an increase in pyrimidine nucleotides following chemotherapy, we investigated the ability of pyrimidine synthesis inhibitors to sensitize these cells to chemotherapy. Cells were treated with varying doses of doxorubicin in combination with the DHODH inhibitor brequinar for 48 hours, and viability measured by propidium iodide uptake. As observed in breast cancer cells, brequinar also sensitized ovarian cancer cells to doxorubicin (FIGS. 8A-B).

[5] = system: human ovarian cancer cell lines (Karumochi, Ovcar3, Ovcar8, Skov3); assay: LC-MS/MS metabolite profiling of ovarian cancer cell lines; format: cell-based; conditions: 2.5 μM cisplatin or 0.5 μM doxorubicin, 24 hours
Procedure: We treated four different human ovarian cancer cell lines with 2.5 μM cisplatin or 0.5 μM doxorubicin for 24 hours and harvested polar metabolites. The samples were profiled using LC-MS/MS for 303 endogenous metabolites. As in breast cancer cells, we observed increases in pyrimidine metabolites (FIGS. 7A-D).

[6] = system: SUM-159PT cells; assay: LC-MS/MS metabolomics profiling of SUM-159PT cells; format: cell-based; conditions: 0.5 μM doxorubicin, 10 hours, versus vehicle
Procedure: (§3) LC-MS/MS metabolomics profiling: For in vitro studies, SUM-159PT cells were maintained in full growth medium, and fresh medium was added at the time cells were treated with doxorubicin. For metabolite extraction, medium from biological triplicates was aspirated and ice-cold 80% (v/v) methanol was added. Cells and the metabolite-containing supernatants were collected and the insoluble material in lysates was pelleted by centrifugation at 10,000 g for 10 min. The resulting supernatant was evaporated using a refridgerated SpeedVac. For in vivo studies, ice-cold 80% (v/v) methanol was added to flash-frozen tumor tissue. Tissue was homogenized using a TissueLyser (Qiagen). The insoluble material was pelleted by centrifugation at 10,000 g for 10 min. The resulting supernatant was evaporated using a refridgerated SpeedVac. Samples were re-suspended using 20 μl HPLC-grade water for mass spectrometry. Ten microlitres was injected and analysed using a 5500 QTRAP hybrid triple quadrupole mass spectrometer (AB/SCIEX) coupled to a Prominence UFLC HPLC system (Shimadzu) with selected reaction monitoring (SRM). Peak areas from the total ion current for each metabolite SRM transition were integrated using MultiQuant v2.0 software (AB/SCIEX). Data analysis was performed using MetaboAnalyst.

[7] = system: TNBC cell lines (HCC1143, MDA-MB-468, CAL51 and MDA-MB-231); assay: Fluorescence-based deoxyribonucleoside triphosphate assay in additional TNBC cell lines; conditions: 0.5 μM doxorubicin, 10 hours; HCC1143, MDA-MB-468, CAL51, MDA-MB-231
Procedure: as §1

[8] = system: de novo pyrimidine synthesis pathway in SUM-159PT cells; assay: Isotope labeling with L-glutamine (amide-15N), flux through de novo pyrimidine synthesis; format: cell-based; conditions: 0.5 μM doxorubicin, 4 hours, then 1 hour labeling
Procedure: Isotope labeling: Ham's F12 medium lacking glutamine (Sigma-Aldrich) was supplemented with 100 μM L-glutamine (amide-^15N). SUM-159PT cells were treated with doxorubicin for 4 hours, at which point medium containing doxorubicin was aspirated and labeled medium was added to the cells. After 1 hour of labeling, cellular metabolites were extracted as described above and quantified using SRM on a 5500 QTRAP mass spectrometer using a protocol to detect ^15N-labelled isotopologues of metabolites in the de novo pyrimidine synthesis pathway.

[9] = system: CAD phosphorylation in TNBC cell lines (HCC1143, MDA-MB-468, CAL-51 and MDA-MB-231); assay: Immunoblotting of CAD phosphorylation in additional TNBC cell lines; format: cell-based; conditions: 0.5 μM doxorubicin, 4 hours; HCC1143, MDA-MB-468, CAL51, MDA-MB-231
Procedure: as §2

[10] = system: SUM-159PT cells; assay: Mitochondrial respiration (oxygen consumption rate, Seahorse analyzer); format: cell-based
Procedure: Mitochondrial respiration: Mitochondrial respiration was assessed using the Seahorse XFe-96 Analyzer (Seahorse Bioscience). SUM-159PT cells (50,000 cells per well) were treated with vehicle control, 0.5 μM Doxorubicin, 20 μM A771726, or the combination (A771726 & Doxorubicin) for 4 hours in normal media conditions. Following this incubation, media was changed to a non-buffered, serum-free Seahorse Media (Seahorse Bioscience, Catalog #102353) supplemented with 5 mM glucose, 2 mM L-glutamine, and 1 mM sodium pyruvate, and the oxygen consumption rate (OCR) was measured. In addition, OCR was measured for 30 minutes upon drug treatment and cells were subsequently challenged with either 1 μM Oligomycin or 0.5 μM Antimycin A to assess their effect on mitochondrial respiration. All experiments were normalized to cell number.

[11] = system: p-H2A.X (Ser139) in SUM-159PT cells; assay: H2A.X phosphorylation (DNA damage) by immunoblotting and immunofluorescence; format: cell-based; conditions: 0.5 μM doxorubicin, 10 hours
Procedure: as §2
Immunofluorescence: Cells plated on coverslips were fixed with 2% paraformaldehyde for 10 minutes, permeabilized with 0.5% Triton X-100, and blocked with 1% BSA in 20 mmol/L Tris-HCl, pH 7.5, for 20 minutes. Coverslips were then incubated with Alexa Fluor® 647—conjugated anti-phospho H2A.X 5139 antibody (1:100) for 3 hours. […] Images of cells were acquired using a fluorescence microscope (Nikon Eclipse Ti) and digital image analysis software (NIS-Elements, Nikon).

[12] = system: MDA-MB-231 xenograft tumors; assay: LC-MS/MS metabolomics profiling of MDA-MB-231 xenograft tumors; format: in vivo, nude mice; conditions: 1 mg/kg doxorubicin, 24 hours, versus vehicle-treated tumors
Procedure: as §3

[13] = system: MDA-MB-231 tumor xenografts; assay: MDA-MB-231 xenograft combination therapy study (tumor volume); format: in vivo, nude mice; conditions: for growth of MDA-MB-231 tumor xenografts (tumor volume): leflunomide 7.5 mg/kg i.p., doxorubicin 1 mg/kg i.p., 28 days
Procedure: Xenograft studies: Female nude mice (6 weeks old) were purchased from Taconic and maintained and treated under specific pathogen-free conditions. All procedures were approved by the Institutional Animal Care and Use Committee at Beth Israel Deaconess Medical Center (BIDMC) and conform to the federal guidelines for the care and maintenance of laboratory animals. The mice were injected subcutaneously with 4×10^6 MDA-MB-231 cells in medium containing 50% growth-factor-reduced, phenol red-free Matrigel (Corning). Tumor formation was examined every two to three days for the duration of the experiment. […] Tumors were collected and flash-frozen 24 hours after animals were exposed to vehicle or doxorubicin. […] Leflunomide (7.5 mg/kg) was administered on days 1-7, 10, 14, 17, 21 and 24 by i.p. injection. Doxorubicin (1 mg/kg) was administered on days 1, 7, 14 and 21 by i.p. injection. Mice were weighed on days 1, 7, 14, 21 and 28. Tumor volume was calculated using the following equation: Tumor volume=(π/6)(W^2)(L), where W represents width, and L represents length.

[14] = system: tumor xenograft models; conditions: single agent, references 22, 23; cited from earlier work
[15] = clinical use; cited from earlier work
[16] = 40 μM PALA, 0.5 μM doxorubicin 10 hours

In the case of `O=C(O)C[C@H](NC(=O)CP(=O)(O)O)C(=O)O` [PALA, N-(phosphonacetyl)-L-aspartate], the “effect on doxorubicin-induced alterations in dTTP levels” value [1, 16] is reported as “did not inhibit”, the “effect on increase in dCTP levels induced by doxorubicin” value [1, 16] is reported as “effectively abrogated” and the “single-agent activity (percentage of dead cells)” value [2] is reported as “minimal single-agent activity”. For the same molecule, the “sensitization of SUM-159PT cells to doxorubicin (percentage of dead cells)” value ([2]; then doxorubicin 48 hours) was “dramatically sensitized”.
With `N#CC(=C(/N)Sc1ccccc1N)/C(C#N)=C(\N)Sc1ccccc1N` [U0126] the “effect on increase in pyrimidine nucleotides following doxorubicin exposure” value ([1]; 5 μM U0126, 0.5 μM doxorubicin 10 hours) was “effectively suppressed” and the “effect on doxorubicin-induced CAD Thr456 phosphorylation” value ([3]; 5 μM U0126 pre-treatment 12 hours, then 0.5 μM doxorubicin 4 hours) was “blocked”.
For `Cc1c(-c2ccc(-c3ccccc3F)cc2)nc2ccc(F)cc2c1C(=O)O` [brequinar], the “single-agent activity (percentage of dead cells)” value [2] was “minimal single-agent activity”, the “sensitization of SUM-159PT cells to doxorubicin (percentage of dead cells)” value ([2]; then doxorubicin 48 hours) was “dramatically sensitized” and the “sensitization of ovarian cancer cells to doxorubicin (viability)” value [4] was “sensitized”.
For `N.N.[Cl][Pt][Cl]` [cisplatin], the “dCTP and dTTP (pyrimidine nucleoside triphosphate) levels, fluorescence-based assay” value [1] was “Elevated levels” and the “pyrimidine metabolite abundance, LC-MS/MS” value [5] was “increases”.
With `COc1cccc2c1C(=O)c1c(O)c3c(c(O)c1C2=O)C[C@@](O)(C(=O)CO)C[C@@H]3O[C@H]1C[C@H](N)[C@H](O)[C@H](C)O1` [doxorubicin] the “abundance of purine nucleotide species, LC-MS/MS” value [6] was “elevated”, the “abundance of pyrimidine nucleotide species, LC-MS/MS” value [6] was “increased the abundance of the majority of pyrimidine nucleotide species” and the “increase in deoxycytidine triphosphate (dCTP) level, LC-MS/MS” value [6] was “greater than 2 fold”. For the same molecule, the “increase in deoxythymidine triphosphate (dTTP) level, LC-MS/MS” value [6] was “greater than 2 fold”, the “dCTP and dTTP (pyrimidine nucleoside triphosphate) levels, fluorescence-based assay” value [1] was “robustly increased” and the “abundance of dCTP and dTTP” value [7] was “increased the abundance”. The “incorporation of 15N-glutamine label into N-carbamoyl-aspartate” value [8] was “significant increase”, the ERK1/2 phosphorylation ([3]; 0.5 μM doxorubicin) was “increase” and the “phosphorylation state of CAD at the S6K1 site (Ser1859)” value ([3]; 0.5 μM doxorubicin) was “no measurable changes”. The “phosphorylation state of S6K1” value ([3]; 0.5 μM doxorubicin) was “no measurable changes”, the “phosphorylation of CAD at the ERK site (Thr456)” value ([3]; 0.5 μM doxorubicin, within two hours) was “striking increase” and the “CAD Ser1859 phosphorylation” value [9] was “No changes”. The “CAD Thr456 phosphorylation” value [9] was “stimulated”, the “cell viability (percentage of dead cells)” value ([2]; 0.5 μM doxorubicin alone, 48 hours, SUM-159PT) was “negligible effects on cell viability” and the “oxygen consumption rate (OCR)” value ([10]; 0.5 μM doxorubicin or 20 μM A771726, 4 hours, 50,000 SUM-159PT cells) was “negligible effect”. The “sensitivity of OCR to oligomycin and antimycin” value ([10]; 0.5 μM doxorubicin, 1 μM oligomycin, 0.5 μM Antimycin A) was “did not affect sensitivity”, the “DNA damage (histone H2A.X phosphorylation)” value [11] was “effectively induced DNA damage” and the “abundance of pyrimidine nucleotide species in tumors, LC-MS/MS” value [12] was “significant increase”. The “growth of MDA-MB-231 tumor xenografts (tumor volume)” value [13] was “cytostatic” and the “pyrimidine metabolite abundance, LC-MS/MS” value [5] was “increases”.
In the case of `Cc1oncc1C(=O)Nc1ccc(C(F)(F)F)cc1` [leflunomide], the “growth of MDA-MB-231 tumor xenografts (tumor volume)” value [13] is given as “did not significantly affect”, the “sensitization of MDA-MB-231 xenograft tumors to doxorubicin” value ([13]; leflunomide with doxorubicin 1 mg/kg) is given as “drastically sensitizes” and the “anti-tumor activity in tumor xenograft models” value [14] is given as “anti-tumor activity”. The tolerability in humans [15] was “well tolerated”.
In the case of `O=c1ccn([C@@H]2O[C@H](CO)[C@@H](O)[C@H]2O)c(=O)[nH]1` [uridine], the “rescue: effect on efficacy of the A771726 plus doxorubicin combination treatment (percentage of dead cells)” value ([2]; 100 μM uridine with 20 μM A771726 pre-treatment 12 hours, then doxorubicin 48 hours) is reported as “completely blocked”.
